Source: publication PMC1084349 (BMC Neuroscience, 2005)
Where a SMILES comes first, the peptide text is derived from it.

Test system: hTAS1R2 and tas1r3-hN-rTM
Assay: Calcium mobilization (FLIPR), chimera with human N-terminus and rat transmembrane region
Format: cell-based
Details: asp 15 mM; cyc 30 mM; neo 0.1 mM; sac 10 mM; suc 100 mM; stev 1 mM
Excerpt: The receptor chimeras of Tas1r3 were constructed using recombinant PCR. In the first reactions the N-terminal and the C-terminal part containing the seven transmembrane domains of hTAS1R3 and rTas1r3 were amplified from plasmid DNA using Ultra Pfu Polymerase (Stratagene). For the hTAS1R3 and rTas1r3 N-termini the forward vector-anchored primer (CMV: […]) and a reverse gene specific primer ([…]) were used. The hTAS1R3 and rTas1r3 C-terminal part were amplified with forward gene specific primer ([…]) and a reverse vector-anchored primer ([…]). PCR conditions were: 5 min, 94°C, 24 cycles 1 min 94°C, 0.5 min 64°C, 2 min 72°C; 5 min 72°C. The amplicons were purified using the Highpure PCR Product Purification Kit (Roche) and used as template for the second PCR. To create the chimeric receptor tas1r3-hN-rTM, equimolar amounts (~50 ng) of the hTAS1R3 N-terminus and rTas1r3 transmembrane domains were combined without additional oligonucleotides. PCR conditions were: 5 min 94°C; 15 cycles of 2 min 64°C, 2 min 72°C and 0.5 min 94°C; followed by 5 min 64°C and 10 min 72°C. […] These chimeras were cloned into pcDNA5/FRT.
The cDNAs were transiently transfected into HEK293T cells stably expressing the chimeric G-protein subunit Gα16gust44 [20] using Lipofectamine 2000 (Invitrogen) according to the manufacturer's protocol. 3–4 hours after transfection, DMEM was replaced by low-glucose DMEM supplemented with GlutaMAX and 10% dialyzed FBS (Invitrogen). 22–44 hours later, cells were loaded for 1 hour with the calcium sensitive dye Fluo4-AM (2 μg/ml in DMEM, Molecular Probes). Cells were washed 3x in solution C1 (130 mM NaCl, 5 mM KCl, 10 mM Hepes, 2 mM CaCl2, and 5 mM Glucose, pH 7,4). Calcium mobilization was monitored by an automated fluorometric imaging plate reader (FLIPR, Molecular Devices). Ligands (Sigma-Aldrich, Merck) were dissolved in C1 solution. All data were collected from at least two independent experiments carried out in triplicate. The obtained calcium signals were corrected for the response of mock transfected cells and normalized to the fluorescence of cells prior to the stimulus using ΔF/F=(F-F0)/F0. […]
All sweeteners were used at concentrations which were close to the maximal obtainable signal. (c) Alignment of amino acid sequences of the human, rat, and mouse Tas1r3 transmembrane regions. Color code: white, identical; grey, conservative; dark-grey, similar; black, non-similar. TM, predicted transmembrane domain, indicated by a black bar. Dots indicate the location of the primer used to generate the chimeric rat-human Tas1r3 receptors. Asterisks denote amino acid positions that are identical in rat and mouse but variable between humans and rodents and are located in the extracellular loops or the upper part of the transmembran regions. Boxes indicate the several rTas1r3 mutants m1 – m7, including the amino acid substitutions. m6/1 – m6/3 signified the reconverted amino acid of mutant m6.

| Structure (SMILES) | activation of receptor (calcium response) |
| --- | --- |
| COC(=O)[C@H](Cc1ccccc1)NC(=O)[C@@H](N)CC(=O)O [aspartame] (HELM PEPTIDE1{D.F.[CO[*:1]]}$$$$V2.0) | responded |
| COc1ccc(CCC(=O)c2c(O)cc(O[C@@H]3O[C@H](CO)[C@@H](O)[C@H](O)[C@H]3O[C@@H]3O[C@@H](C)[C@H](O)[C@@H](O)[C@H]3O)cc2O)cc1O [neohesperidine dihydrochalcone] | not |
| O=S(=O)(O)NC1CCCCC1 [cyclamate] | not |

The remaining lines, values ahead:

| activation of receptor (calcium response) | Structure (SMILES) |
| --- | --- |
| responded | OC[C@H]1O[C@@](CO)(O[C@H]2O[C@H](CO)[C@@H](O)[C@H](O)[C@H]2O)[C@@H](O)[C@@H]1O [sucrose] |
| responded | C=C1C[C@@]23CC[C@H]4[C@@](C)(CCC[C@@]4(C)C(=O)O[C@@H]4O[C@H](CO)[C@@H](O)[C@H](O)[C@H]4O)[C@@H]2CC[C@]1(O[C@@H]1O[C@H](CO)[C@@H](O)[C@H](O)[C@H]1O[C@@H]1O[C@H](CO)[C@@H](O)[C@H](O)[C@H]1O)C3 [stevioside] |
